{"source": "paper PMC6347702", "about": "(Proceedings of the National Academy of Sciences of the …, 2019)", "experiment_in_all_cases": "spectrophotometric enzyme assay, recombinant human enzyme, […] ATP-Mg2+", "format_in_all_cases": "biochemical", "key": {"hexokinase 2 (∆28-hHK2)": {"biological_target": "T1, hexokinase 2 (∆28-hHK2) (Homo sapiens, UniProt P52789)", "T1 sequence (P52789 29-917)": "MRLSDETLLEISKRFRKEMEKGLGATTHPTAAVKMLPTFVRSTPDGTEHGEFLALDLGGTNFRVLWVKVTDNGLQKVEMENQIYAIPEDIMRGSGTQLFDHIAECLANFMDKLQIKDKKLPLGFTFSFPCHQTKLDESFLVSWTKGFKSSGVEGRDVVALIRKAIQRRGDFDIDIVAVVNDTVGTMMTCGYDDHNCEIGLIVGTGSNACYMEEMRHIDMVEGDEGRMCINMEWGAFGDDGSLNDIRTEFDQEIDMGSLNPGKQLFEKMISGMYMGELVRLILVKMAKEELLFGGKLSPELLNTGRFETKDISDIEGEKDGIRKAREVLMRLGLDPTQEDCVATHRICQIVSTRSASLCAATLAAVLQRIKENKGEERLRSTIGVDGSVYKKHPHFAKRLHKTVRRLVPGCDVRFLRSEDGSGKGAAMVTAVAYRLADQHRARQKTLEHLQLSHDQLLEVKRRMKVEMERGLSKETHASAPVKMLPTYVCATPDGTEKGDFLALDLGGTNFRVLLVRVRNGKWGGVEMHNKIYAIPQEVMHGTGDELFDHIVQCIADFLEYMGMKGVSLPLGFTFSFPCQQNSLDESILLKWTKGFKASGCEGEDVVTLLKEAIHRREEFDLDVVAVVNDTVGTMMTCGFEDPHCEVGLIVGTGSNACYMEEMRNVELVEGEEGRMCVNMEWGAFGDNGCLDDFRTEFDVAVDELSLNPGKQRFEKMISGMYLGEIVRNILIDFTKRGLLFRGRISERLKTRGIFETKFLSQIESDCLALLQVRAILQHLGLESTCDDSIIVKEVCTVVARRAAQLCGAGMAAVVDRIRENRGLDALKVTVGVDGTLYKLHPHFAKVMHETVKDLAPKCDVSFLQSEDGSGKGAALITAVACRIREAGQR"}, "hexokinase 3 (hHK3)": {"biological_target": "T2, hexokinase 3 (hHK3) (Homo sapiens, UniProt P52790)", "T2 sequence (P52790 1-923)": "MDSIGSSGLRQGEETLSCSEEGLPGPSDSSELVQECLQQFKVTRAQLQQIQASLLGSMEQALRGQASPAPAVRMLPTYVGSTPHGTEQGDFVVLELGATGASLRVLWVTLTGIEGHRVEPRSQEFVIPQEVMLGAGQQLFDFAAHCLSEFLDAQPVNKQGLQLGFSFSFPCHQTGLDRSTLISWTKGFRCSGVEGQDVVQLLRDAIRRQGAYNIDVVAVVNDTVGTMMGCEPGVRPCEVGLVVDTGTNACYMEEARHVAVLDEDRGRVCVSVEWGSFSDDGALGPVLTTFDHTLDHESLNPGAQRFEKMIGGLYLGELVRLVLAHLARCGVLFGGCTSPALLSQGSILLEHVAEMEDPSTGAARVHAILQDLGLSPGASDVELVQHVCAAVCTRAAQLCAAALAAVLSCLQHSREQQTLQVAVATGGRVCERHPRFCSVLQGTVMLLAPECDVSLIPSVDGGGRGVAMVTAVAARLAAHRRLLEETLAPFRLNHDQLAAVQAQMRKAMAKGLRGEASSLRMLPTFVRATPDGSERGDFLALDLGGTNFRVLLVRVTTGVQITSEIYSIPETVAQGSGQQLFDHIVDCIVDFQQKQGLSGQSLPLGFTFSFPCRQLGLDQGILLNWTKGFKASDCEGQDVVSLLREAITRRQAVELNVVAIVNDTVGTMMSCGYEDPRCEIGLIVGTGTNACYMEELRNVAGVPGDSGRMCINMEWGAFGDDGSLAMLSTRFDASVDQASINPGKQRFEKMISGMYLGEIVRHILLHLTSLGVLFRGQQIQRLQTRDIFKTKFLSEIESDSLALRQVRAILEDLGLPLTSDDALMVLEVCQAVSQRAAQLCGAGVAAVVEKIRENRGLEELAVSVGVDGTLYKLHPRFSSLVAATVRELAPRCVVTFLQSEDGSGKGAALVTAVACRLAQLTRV"}, "hexokinase 1 (∆21-hHK1)": {"biological_target": "T3, hexokinase 1 (∆21-hHK1) (Homo sapiens, UniProt P19367)", "T3 sequence (P19367 22-917)": "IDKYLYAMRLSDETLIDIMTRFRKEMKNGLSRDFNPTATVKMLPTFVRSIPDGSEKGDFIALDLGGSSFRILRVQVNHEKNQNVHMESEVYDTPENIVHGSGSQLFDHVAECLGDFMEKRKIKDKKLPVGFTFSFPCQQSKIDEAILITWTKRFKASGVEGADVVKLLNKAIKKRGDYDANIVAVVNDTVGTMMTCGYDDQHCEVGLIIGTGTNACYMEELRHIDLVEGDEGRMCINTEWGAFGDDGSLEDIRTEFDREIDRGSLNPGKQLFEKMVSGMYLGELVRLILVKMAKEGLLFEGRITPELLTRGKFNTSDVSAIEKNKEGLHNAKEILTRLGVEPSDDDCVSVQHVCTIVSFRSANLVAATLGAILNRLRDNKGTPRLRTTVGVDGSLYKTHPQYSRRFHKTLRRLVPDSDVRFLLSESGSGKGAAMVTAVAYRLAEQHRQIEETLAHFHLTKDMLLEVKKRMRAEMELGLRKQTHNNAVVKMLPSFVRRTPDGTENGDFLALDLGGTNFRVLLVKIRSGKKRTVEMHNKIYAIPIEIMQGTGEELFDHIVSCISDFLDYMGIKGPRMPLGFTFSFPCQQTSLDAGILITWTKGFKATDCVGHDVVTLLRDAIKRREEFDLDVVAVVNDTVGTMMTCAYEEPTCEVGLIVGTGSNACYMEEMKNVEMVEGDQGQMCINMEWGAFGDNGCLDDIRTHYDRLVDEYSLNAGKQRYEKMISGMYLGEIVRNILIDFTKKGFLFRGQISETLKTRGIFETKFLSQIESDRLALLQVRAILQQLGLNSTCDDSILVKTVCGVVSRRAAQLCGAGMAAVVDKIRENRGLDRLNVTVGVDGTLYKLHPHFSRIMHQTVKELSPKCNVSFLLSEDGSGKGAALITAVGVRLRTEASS"}}, "data": [{"smiles": "O=P(O)(O)OC[C@H]1OC[C@H](O)[C@@H](O)[C@@H]1O", "note": "[1,5AG6P, 1,5-anhydroglucitol-6-phosphate]", "values": [{"measurement": "Ki", "setting": "hexokinase 2 (∆28-hHK2)", "value": "96 ± 3", "unit": "µM"}, {"measurement": "Ki", "setting": "hexokinase 3 (hHK3)", "value": "134 ± 9", "unit": "µM"}, {"measurement": "Ki", "setting": "hexokinase 1 (∆21-hHK1)", "value": "53 ± 2", "unit": "µM"}]}]}
